{
  "source": "patent US11179385B2",
  "about": "(THE TRUSTEES OF THE UNIVERSITY OF PENNSYLVANIA, priority 2015, dated 2021)",
  "key": {"[1]": {"system": "T cell activation; cytokine induction", "conditions": "cited from earlier work"}, "[2]": {"system": "B16-F10 melanoma cells in C57BL/6J mice", "assay": "Topical resiquimod gel in the B16 melanoma model", "assay_type": "in vivo, mouse", "description": "FIGS. 5A-5E. […] FIG. 5A) Treatment scheme. […] Arrow points to the inflammatory cells. FIG. 5E) Fold changes in cytokine and chemokine mRNA expression in the tumor tissues from treated mice compared to control mice. *indicates p<0.05. Bars in d indicate 25 μm.\nTumor tissues were processed and we measured cytokine and chemokine mRNA expression in the tumor using qRT-PCR."}, "[3]": {"system": "melanoma in Tyr::creER, BRAF^ca, Phd2^lox/lox mice", "assay": "Topical resiquimod on melanoma progression in Tyr::creER, BRAFca, Phd2lox/lox mice", "assay_type": "in vivo, mouse", "conditions": "topical 0.2% twice a week for 6 weeks", "description": "FIGS. 2A-2L. […] FIG. 2A) Treatment scheme. FIG. 2B) Large tumor in a mouse treated with vehicle (n=10). FIG. 2C) Underside of skin filled with tumor. FIGS. 2D and 2E) Histology of melanoma in a control mouse. The dermis is filled with tumor cells. […] FIG. 2G) Underside of skin cleared of tumor. FIG. 2H) Histology of skin in a treated mouse, normal appearing. FIG. 2I) Macrophages with pigment are present in the dermis in a treated mouse. Arrow points to macrophages. FIG. 2J)Tumor growth curve. FIG. 2K) In situ melanoma in control mice. Arrows point to the tumor cells in the epidermis and hair follicle. I) Normal appearing epidermis in treated mice. *indicates p<0.05. Bars in b, c, f and g indicate 6 mm. Bars in d, e, h and I, indicate 200 μm. Bars in k and l indicate 10 μm.\nThe Tyr:creER, BRAF^ca, phd2^lox/lox mouse melanoma model was developed in Dr. Xu's lab. Melanoma can be induced with 100% penetrance using topical 4-HT. Lymph node metastasis is frequent in these mice. […] The melanoma in control mice grew and the tumor became very big at day 180 (FIG. 2B). These mice were sacrificed. The underside of skin was occupied completely by tumor (FIG. 2C). Histologically, the dermis was filled entirely by melanoma cells (FIG. 2D and FIG. 2E). […] Histologically, dermal melanoma had regressed (FIG. 2H) and numerous macrophages with pigment were present in the dermis (FIG. 2I), indicating melanoma has regressed. None of the treated mice developed lymph node metastasis."}, "[4]": {"system": "B16-F10 melanoma cells in CD8 depleted C57 mice", "assay": "Resiquimod gel in CD8 depleted C57 mice with B16-F10 melanoma", "assay_type": "in vivo, mouse", "procedure": "(§1) Once these mice developed palpable tumors, resiquimod treatment was administered twice a week. […] CD8 depletion was achieved using anti-CD8 antibody. […]"}, "T cells from spleen": {"system": "T cells from spleen", "assay": "Cytokine release by T cells from spleen after stimulation", "assay_type": "cell-based, mouse", "conditions": "resiquimod treated T cells from spleen", "procedure": "as §1"}, "[5]": {"system": "nevus-like pigmented tumors in Tyr::creER, BRAF^ca mice", "assay": "Topical resiquimod gel on pigmented tumor progression in Tyr::creER, BRAFca mice (nevus model)", "assay_type": "in vivo, mouse", "procedure": "FIGS. 1A-1I. […] FIG. 1A) Treatment scheme. […] FIG. 1D) Pigmented lesion in a mouse before treatment. […] FIG. 1F) Histology of tumor treated with vehicle. […] Bars in b-e indicate 6 mm. Bars in f-h indicate 200 μm.\nA majority of nevi and melanomas contain BRAF mutations, particularly the BRAFV600E mutation.\nMice treated with blank topical gel were used as controls. […] Tumor diameters were measured using calipers every three days."}, "[6]": {"assay": "Stability and solubility of resiquimod in ethanol:PBS topical formulation (HPLC)", "assay_type": "physicochemical", "conditions": "50:50 ethanol:pbs topical formulation aged for 2 weeks"}, "[7]": {"system": "B16-F10 melanoma cells in RAG-1-deficient mice", "assay": "Resiquimod gel in RAG-1-deficient mice with B16-F10 melanoma", "assay_type": "in vivo, mouse", "procedure": "as §1"}, "[8]": {"system": "melanoma in Tyr::creER, BRAF^ca, Pten^lox/lox mice", "assay": "Topical resiquimod gel on melanoma progression in Tyr::creER, BRAFca, Ptenlox/lox mice", "assay_type": "in vivo, mouse", "description": "FIGS. 3A-3I. […] FIG. 3A) Treatment scheme. FIG. 3B) Representative image of a mouse with control treatment (n=15). […] FIG. 3D) Histology of melanoma in a control mouse. […] FIG. 3E) Histology of melanoma in a treated mouse. […] Bars indicate 6 mm in FIG. 3B and FIG. 3C, 400 μm in FIG. 3D and FIG. 3E and 50 μm in FIG. 3H and FIG. 3I.\nFIGS. 4A-4I. […] FIG. 4A) Treatment scheme. […] All measurement was compared to the control. *indicates p<0.05.\nTumor and spleen tissues were processed and multicolor flow cytometry analysis was performed."}, "[9]": {"system": "melanoma in Tyr::creER, BRAF^ca, Pten^lox/lox mice", "assay": "Resiquimod in combination with anti-PD1 therapy in Tyr::creER, BRAFca, Ptenlox/lox mice", "assay_type": "in vivo, mouse", "conditions": "0.2% resiquimod twice a week for 6 weeks; anti-PD1 200 μg i.p. twice a week for 5 weeks", "description": "FIGS. 7A-7G. […] FIG. 7A) Treatment scheme. […] FIG. 7F) Effect of therapies on melanoma growth (n=5 each group). FIG. 7G) Effect of therapies on lymph node metastasis. *indicates p<0.05. **indicates p<0.01. Bars indicate 6 mm."}, "[10]": {"conditions": "0.2% resiquimod gel twice a week"}, "[11]": {"conditions": "qRT-PCR, compared to control mice"}, "[12]": {"conditions": "treated 3 weeks, flow cytometry of tumor"}},
  "data": [
    {"smiles": "CCOCc1nc2c(N)nc3ccccc3c2n1CC(C)(C)O", "note": "[resiquimod, 1-[4-amino-2-(ethoxymethyl)imidazo[4,5-c]quinolin-1-yl]-2-methylpropan-2-ol]", "values": [
      {"measurement": "induction of IFN-α, TNF-α, IL-1, IL-6, IL-8 and IL-12 compared with imiquimod", "setting": "[1]", "value": "more potent inducer"},
      {"measurement": "histology: inflammatory cells in the tumor", "setting": "[2]; [10]", "value": "more inflammatory cells"},
      {"measurement": "lifespan (survival) of treated mice", "setting": "[2]; [10]", "value": "prolonged the lifespan"},
      {"measurement": "melanoma growth", "setting": "[2]; [10]", "value": "significantly slowed the melanoma growth"},
      {"measurement": "CCL2 mRNA expression in the tumor", "setting": "[2]; [11]", "value": "increased"},
      {"measurement": "INF-γ mRNA expression in the tumor", "setting": "[2]; [11]", "value": "increased"},
      {"measurement": "TNF-α mRNA expression in the tumor", "setting": "[2]; [11]", "value": "increased"},
      {"measurement": "histology: dermal melanoma", "setting": "[3]", "value": "regressed"},
      {"measurement": "melanoma cells in the epidermis (in situ melanoma)", "setting": "[3]", "value": "disappeared after treatment"},
      {"measurement": "treated mice that developed lymph node metastasis", "setting": "[3]", "value": "None"},
      {"measurement": "tumor on underside of skin", "setting": "[3]", "value": "significantly less tumors"},
      {"measurement": "melanoma growth", "setting": "[3]; started 140 days after induction", "value": "inhibited"},
      {"measurement": "effect of resiquimod on survival curves", "setting": "[4]; CD8-depleted mice", "value": "abolished"},
      {"measurement": "effect on melanoma", "setting": "[4]; CD8 T cell depleted mice (anti-CD8 antibody), resiquimod twice a week", "value": "little effect"},
      {"measurement": "expression of IFN-γ by T cells after stimulation", "setting": "T cells from spleen", "value": "increased expression"},
      {"measurement": "pigmented lesion growth (tumor diameter)", "setting": "[5]; 0.2% resiquimod topical gel twice a week for six weeks vs blank gel", "value": "regressed"},
      {"measurement": "histology: pigmented tumor cells in the dermis", "setting": "[5]; 0.2% topical gel twice a week for six weeks", "value": "disappeared"},
      {"measurement": "pigmented tumor cells in the epidermis", "setting": "[5]; 0.2% topical gel twice a week for six weeks, data not shown", "value": "regressed completely"},
      {"measurement": "palpable pigmented lesion after treatment", "setting": "[5]; different experiment, topical resiquimod for 1 month", "value": "disappeared after treatment"},
      {"measurement": "solubility in base formulation", "setting": "[6]", "value": "soluble"},
      {"measurement": "effect on melanoma growth", "setting": "[7]; RAG-1-deficient mice, resiquimod gel twice a week", "value": "little effect"},
      {"measurement": "effect of resiquimod on survival curves", "setting": "[7]; Rag-1-deficient mice", "value": "abolished"},
      {"measurement": "melanoma growth (tumor volume)", "setting": "[8]; resiquimod gel twice a week for 6 weeks vs control vehicle", "value": "significantly slowed melanoma growth"},
      {"measurement": "tumor thickness", "setting": "[8]; treated 3 weeks", "value": "significantly thinner tumors"},
      {"measurement": "CD45+CD11B+F4/80-Ly6g high MDSCs in the tumor", "setting": "[8]; [12]", "value": "decrease"},
      {"measurement": "PD1+CD8+ T cells", "setting": "[8]; [12]", "value": "significantly increased"},
      {"measurement": "expression of granzyme B in CD8^- T cells", "setting": "[8]; [12]", "value": "increased"},
      {"measurement": "intratumoral CD45+ inflammatory cells", "setting": "[8]; [12]", "value": "significant increase"},
      {"measurement": "number of GranB+CD8+ T cells", "setting": "[8]; [12]", "value": "increased"},
      {"measurement": "number of GranB+CD8+Ki-67+ T cells", "setting": "[8]; [12]", "value": "increased"},
      {"measurement": "mice that developed lymph node metastasis", "setting": "[8]; treated 3 weeks, sacrificed on treatment, control: all 5 mice", "value": "2 of 5"},
      {"measurement": "positive lymph nodes per mouse with metastasis", "setting": "[8]; treated 3 weeks, control 2-4 per mouse", "value": 1},
      {"measurement": "histology: infiltration of melanoma through skeletal muscle", "setting": "[8]; twice a week for 6 weeks", "value": "did not infiltrate through the skeletal muscle"},
      {"measurement": "in situ melanoma in the epidermis", "setting": "[8]; twice a week for 6 weeks", "value": "disappeared after treatment"},
      {"measurement": "lifespan (survival) of treated mice", "setting": "[8]; twice a week for 6 weeks", "value": "prolonged the lifespan"},
      {"measurement": "lymph node metastasis (number of positive lymph nodes)", "setting": "[9]", "value": "significantly reduced"},
      {"measurement": "melanoma growth (tumor volume)", "setting": "[9]", "value": "significantly slowed melanoma growth"}
    ]}
  ]
}
